Experimental data reported in ChEMBL document CHEMBL4680348, “1,2,4-Thiadiazole acyclic nucleoside phosphonates as inhibitors of cysteine dependent enzymes cathepsin K and GSK-3β” (Bioorg Med Chem, 2021).

What was measured:
SH-SY5Y [1] = assay: Cytotoxicity against human SH-SY5Y cells assessed as cell viability at 100 uM incubated for 72 hrs by CellTiter-Glo luminescence based assay; format: functional; settings: read-out: Activity
[2] = Cytotoxicity against human NHDF cells assessed as cell viability at 10 uM incubated for 72 hrs by CellTiter-Glo luminescence based assay; settings: read-out: Activity
[3] = molecular target: T1, Cathepsin K (Homo sapiens) (UniProt P43235); assay: Inhibition of recombinant human Cathepsin K expressed in Pichia pastoris X-33 assessed as residual activity at 10 uM using Z-Gly-Pro-Arg-AMC as substrate preincubated for 10 mins followed by substrate addition measured after 30 mins by fluorescence based microplate reader assay; settings: time 40.0 min
T1 sequence (whole entry): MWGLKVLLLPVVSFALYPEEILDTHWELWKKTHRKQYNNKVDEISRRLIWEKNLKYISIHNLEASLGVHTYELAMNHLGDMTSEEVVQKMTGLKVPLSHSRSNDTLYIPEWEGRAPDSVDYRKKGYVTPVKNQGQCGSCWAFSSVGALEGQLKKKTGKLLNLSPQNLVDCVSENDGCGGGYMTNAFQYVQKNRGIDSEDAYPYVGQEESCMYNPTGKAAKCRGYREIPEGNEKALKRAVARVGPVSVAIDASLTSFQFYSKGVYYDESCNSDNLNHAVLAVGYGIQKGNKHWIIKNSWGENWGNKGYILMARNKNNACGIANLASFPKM

[4] = molecular target: Glycogen synthase kinase-3 beta (Homo sapiens, UniProt P49841); assay: Inhibition of human recombinant GSK3beta using GSK3 peptide as substrate preincubated for 15 mins followed by ATP addition and measured after 90 mins by ADP-Glo kinase assay
Chain of Glycogen synthase kinase-3 beta (P49841 whole entry): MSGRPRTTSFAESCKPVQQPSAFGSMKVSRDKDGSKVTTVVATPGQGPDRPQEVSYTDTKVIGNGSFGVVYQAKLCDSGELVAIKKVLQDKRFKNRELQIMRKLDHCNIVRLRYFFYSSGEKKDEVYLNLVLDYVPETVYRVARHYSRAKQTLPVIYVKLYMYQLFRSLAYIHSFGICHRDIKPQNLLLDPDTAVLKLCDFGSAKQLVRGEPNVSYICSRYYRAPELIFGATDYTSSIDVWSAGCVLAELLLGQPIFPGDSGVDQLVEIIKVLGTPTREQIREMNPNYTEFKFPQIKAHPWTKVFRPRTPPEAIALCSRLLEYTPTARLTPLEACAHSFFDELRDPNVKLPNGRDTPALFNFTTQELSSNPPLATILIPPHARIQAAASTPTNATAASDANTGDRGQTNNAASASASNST

HepG2 [5] = assay: Cytotoxicity against human HepG2 cells assessed as cell viability at 10 uM incubated for 72 hrs by CellTiter-Glo luminescence based assay; format: functional; settings: read-out: Activity
HeLa S3 [6] = assay: Cytotoxicity against human HeLa S3 cells assessed as cell viability at 100 uM incubated for 72 hrs by CellTiter-Glo luminescence based assay; format: functional; settings: read-out: Activity
HL-60 [7] = assay: Cytotoxicity against human HL-60 cells assessed as cell viability at 100 uM incubated for 72 hrs by CellTiter-Glo luminescence based assay; format: functional; settings: read-out: Activity
[8] = Cytotoxicity against human NHDF cells assessed as cell viability at 100 uM incubated for 72 hrs by CellTiter-Glo luminescence based assay; settings: read-out: Activity
HL-60 [9] = assay: Cytotoxicity against human HL-60 cells assessed as cell viability at 10 uM incubated for 72 hrs by CellTiter-Glo luminescence based assay; format: functional; settings: read-out: Activity
HepG2 [10] = assay: Cytotoxicity against human HepG2 cells assessed as cell viability at 100 uM incubated for 72 hrs by CellTiter-Glo luminescence based assay; format: functional; settings: read-out: Activity
CCRF-CEM [11] = assay: Cytotoxicity against human CCRF-CEM cells assessed as cell viability at 100 uM incubated for 72 hrs by CellTiter-Glo luminescence based assay; format: functional; settings: read-out: Activity
HeLa S3 [12] = assay: Cytotoxicity against human HeLa S3 cells assessed as cell viability at 10 uM incubated for 72 hrs by CellTiter-Glo luminescence based assay; format: functional; settings: read-out: Activity
CCRF-CEM [13] = assay: Cytotoxicity against human CCRF-CEM cells assessed as cell viability at 10 uM incubated for 72 hrs by CellTiter-Glo luminescence based assay; format: functional; settings: read-out: Activity
SH-SY5Y [14] = assay: Cytotoxicity against human SH-SY5Y cells assessed as cell viability at 10 uM incubated for 72 hrs by CellTiter-Glo luminescence based assay; format: functional; settings: read-out: Activity

Structure (SMILES) | viability at 100 µM (SH-SY5Y [1]) | viability at 72 h, 10 µM [2] | Activity [3] | IC50 [4] | viability at 10 µM (HepG2 [5]) | viability at 100 µM (HeLa S3 [6]) | viability at 100 µM (HL-60 [7]) | viability at 72 h, 100 µM [8] | viability at 10 µM (HL-60 [9]) | viability at 100 µM (HepG2 [10]) | viability at 100 µM (CCRF-CEM [11]) | viability at 10 µM (HeLa S3 [12]) | viability at 10 µM (CCRF-CEM [13]) | viability at 10 µM (SH-SY5Y [14])
CC(C)OP(=O)(COCCOc1nsc(/N=C/N(C)C)n1)OC(C)C | 87% | 101% | 52.9% | > 10 µM | 99% | 89% | 98% | 99% | 97% | 90% | 93% | 101% | 106% | 101%
O=C(Nc1nc(=O)[nH]s1)c1ccccc1 | 90% | 104% | 85% | > 10 µM | 99% | 101% | 110% | 100% | 101% | 77% | 96% | 99% | 102% | 103%
O=C(Nc1nc(=O)n(CCOCP(=O)(O)O)s1)OCC1c2ccccc2-c2ccccc21 | 99% | 93% | 67% | > 10 µM | 105% | 102% | 106% | 84% | 102% | 103% | 90% | 97% | 85% | 102%
CC(C)OP(=O)(COCCOc1nsc(N)n1)OC(C)C | 55% | 104% | 78.3% | > 10 µM | 100% | 98% | 108% | 114% | 103% | 99% | 103% | 97% | 114% | 98%
CCOC(=O)Nc1nc(=O)n(C[C@@H](CO)OCP(=O)(OC(C)C)OC(C)C)s1 | 104% | 104% | 83.4% | > 10 µM | 101% | 87% | 101% | 100% | 97% | 93% | 45% | 90% | 67% | 104%
CC(=O)Nc1nc(=O)[nH]s1 | 99% | 99% | 76.6% | > 10 µM | 103% | 102% | 108% | 105% | 105% | 88% | 102% | 97% | 104% | 102%
CCOC(=O)Nc1nc(=O)n(C[C@@H](CO)OCP(=O)(O)O)s1 | 99% | 101% | 97.5% | > 10 µM | 99% | 94% | 99% | 99% | 95% | 89% | 114% | 97% | 94% | 100%
CCOC(=O)Nc1nc(=O)n(CCOCP(=O)(OC(C)C)OC(C)C)s1 | 104% | 101% | 86.8% | > 10 µM | 104% | 101% | 111% | 98% | 102% | 100% | 98% | 100% | 92% | 105%
